US8815535B2, “Disk diffusion assay for oritavancin” (The Medicines Company, priority 2011, dated 2014)
Read-outs that look alike come from different tables or passages of the source.

Assays:
MSSA ATCC 29213 = test: Disk diffusion assay (zone of inhibition); assay type: cell-based; conditions: Staphylococcus aureus; for zone of inhibition at 360 µg/disc: 360 μg in 5% P80, read-out: Zone diameter (mm ± SD); for zone of inhibition at 180 µg/disc: MSSA ATCC 29213, 180 μg oritavancin in 2.5% P80, read-out: Zone diameter
From the text: (§1) The study was designed to identify conditions that improve oritavancin diffusion in agar and consequently yield a zone diameter ≧15 mm for the CLSI quality control strain MSSA ATCC 25923. Excipients that increased the disk diffusion of oritavancin in agar relative to disks containing only oritavancin were identified and selected for further study. […] A prediffusion step at room temperature was introduced to maximize oritavancin diffusion prior to initiation of bacterial growth. In this step, the antimicrobial disks were placed on agar plates seeded with a bacterial isolate and incubated at room temperature for 3 hours. Plates were then incubated overnight at 37° C. Zone diameters around the disks in which bacterial growth was inhibited were measured with a ruler and reported in millimeters.
(§2) Ethanol-sterilized Whatman paper disks (6 mm diameter) were allowed to dry then impregnated with 20 microliters of oritavancin solution containing total amounts ranging from 90 to 360 micrograms. Disks were allowed to dry at room temperature for various times prior to use.
(§3) Bacterial suspensions were prepared and adjusted to an optical density of 0.1 at 600 nm. Standard cation-adjusted Mueller Hinton agar plates (90 mm diameter) were seeded with bacterial suspensions by initially swabbing the center of plate then moving outward towards the edge. The plate was swabbed a second time, perpendicular to the orientation of the first swab. To assess the impact of prediffusion on diameter of inhibition zones, two disks were immediately placed on one half of the plate and the plate was incubated for 3 hours at room temperature. After 3 hours, two additional disks were placed on the other half of the plate then the plate was incubated overnight at 37° C. Zone diameters were measured with a ruler and reported in millimeters.
Oritavancin powder was dissolved in freshly-prepared solutions of the indicated excipients at concentrations of 0.625, 1.25, 2.5, 5, and 10 mg/ml (adjusted for potency based on lot 875561L00 purity of 83.1%) by vortexing for a minimum of 5 minutes. Oritavancin solutions in the various excipients, while not visually clear, were free from any apparent particulates as assessed visually. Sterile Oxoid blank disks were impregnated with 20 μl of these oritavancin solutions, resulting in oritavancin disk loads ranging from 12.5 to 200 μg. Unless indicated otherwise, disks were allowed to dry overnight at room temperature prior to use.
Bacterial suspensions from isolated colonies on overnight cation-adjusted Mueller Hinton agar plates were prepared in sterile saline and adjusted to an optical density of 0.1 at 600 nm Standard cation-adjusted Mueller Hinton agar plates (90 mm diameter) were seeded with bacterial suspensions by initially swabbing the center of plate then moving outward. Swabbing was continued at a right angle and then at an oblique angle to the first and second swabs. Disks were placed upon the seeded plates with sterile forceps. Plates were then incubated overnight at 37° C. and inhibition zone diameters were measured with a ruler and reported in millimeters.

MRSA NRS121 = test: Disk diffusion assay (zone of inhibition); assay type: cell-based; conditions: Staphylococcus aureus, read-out: Zone diameter (mm ± SD), NRS121, 360 μg in 5% P80
From the text: as §1, §2, §3

MRSA NRS121-ORI^RS = test: Disk diffusion assay (zone of inhibition); assay type: cell-based; conditions: Staphylococcus aureus, read-out: Zone diameter (mm ± SD)
From the text: as §1, §2, §3

MSSA T972018 = test: Disk diffusion assay (zone of inhibition); assay type: cell-based; conditions: Staphylococcus aureus, read-out: Zone diameter (mm ± SD)
From the text: as §1, §2, §3

MRSA NRS123 = test: Disk diffusion assay (zone of inhibition); assay type: cell-based; conditions: Staphylococcus aureus; for zone of inhibition at 90 µg/disc: 90 μg oritavancin; for zone of inhibition at 180 µg/disc: 180 μg oritavancin
From the text: as §1, §2, §3

MRSA NRS123-ORI^RS = test: Disk diffusion assay (zone of inhibition); assay type: cell-based; conditions: Staphylococcus aureus, read-out: Zone diameter (mm ± SD)
From the text: as §1, §2, §3

NRS123 and NRS2 = test: Disk diffusion assay, difference in zone diameter between two isolates; assay type: cell-based, Staphylococcus aureus
From the text: as §1, §2, §3

[1] = 360 μg in 5% P80, Average, no prediffusion
[2] = 360 μg in 5% P80, Average, prediffusion
[3] = 360 μg in 5% P80, Experiment 2, disks stored 8 days, 3 h prediffusion at room temperature
[4] = 192 h, 360 μg in 5% P80, Experiment 2, disks stored 8 days, no prediffusion
[5] = 192 h, 2.5% P80, disks stored 8 days, prediffusion, read-out: Average zone diameter
[6] = 336 h, 5% P80, disks stored 14 days, prediffusion, read-out: Average zone diameter
[7] = 336 h, 10% P80, disks stored 14 days, prediffusion, read-out: Average zone diameter

## CN[C@H](CC(C)C)C(=O)N[C@H]1C(=O)N[C@@H](CC(N)=O)C(=O)N[C@H]2C(=O)N[C@H]3C(=O)N[C@H](C(=O)N[C@H](C(=O)O)c4cc(O)cc(O)c4-c4cc3ccc4O)[C@H](O[C@H]3C[C@](C)(N)[C@@H](O)[C@H](C)O3)c3ccc(c(Cl)c3)Oc3cc2cc(c3O[C@@H]2O[C@H](CO)[C@@H](O)[C@H](O)[C@H]2O[C@H]2C[C@](C)(NCc3ccc(-c4ccc(Cl)cc4)cc3)[C@@H](O)[C@H](C)O2)Oc2ccc(cc2Cl)[C@H]1O [oritavancin, N-(4-(4-chlorophenyl)benzyl)A82846B]
MSSA ATCC 29213; 336 h, ATCC 29213, Experiment 1, disks stored 14 days, no prediffusion
  zone of inhibition at 360 µg/disc: 15.8 ± 0.4 mm
MSSA ATCC 29213; ATCC 29213, 25 μg (1.25 mg/ml) in 4% P80/Span 80 (1:1), dried overnight, read-out: Inhibition zone diameter
  zone of inhibition at 25 µg/disc: 24 mm
MSSA ATCC 29213; ATCC 29213, Average, no prediffusion
  zone of inhibition at 360 µg/disc: 15.8 ± 0.4 mm
MSSA ATCC 29213; ATCC 29213, Average, prediffusion
  zone of inhibition at 360 µg/disc: 18.3 ± 0.4 mm
MSSA ATCC 29213; ATCC 29213, Experiment 1, disks stored 14 days, 3 h prediffusion at room temperature
  zone of inhibition at 360 µg/disc: 18.3 ± 0.4 mm
MSSA ATCC 29213; 0% P80 in CAMHA, no prediffusion
  zone of inhibition at 180 µg/disc: 15.3 mm
MSSA ATCC 29213; 0% P80 in CAMHA, prediffusion
  zone of inhibition at 180 µg/disc: 18.3 mm
MSSA ATCC 29213; 1% P80 in CAMHA, no prediffusion
  zone of inhibition at 180 µg/disc: 15.3 mm
MSSA ATCC 29213; 1% P80 in CAMHA, prediffusion
  zone of inhibition at 180 µg/disc: 18 mm
MRSA NRS121; 192 h, Experiment 2, disks stored 8 days, no prediffusion
  zone of inhibition at 360 µg/disc: 15 mm
MRSA NRS121; Average, no prediffusion
  zone of inhibition at 360 µg/disc: 15 mm
MRSA NRS121; Average, prediffusion
  zone of inhibition at 360 µg/disc: 17.3 ± 0.4 mm
MRSA NRS121; Experiment 2, disks stored 8 days, 3 h prediffusion at room temperature
  zone of inhibition at 360 µg/disc: 17.3 ± 0.4 mm
MRSA NRS121-ORI^RS; [1]
  zone of inhibition at 360 µg/disc: 13 mm
MRSA NRS121-ORI^RS; [2]
  zone of inhibition at 360 µg/disc: 14 mm
MRSA NRS121-ORI^RS; [3]
  zone of inhibition at 360 µg/disc: 14 mm
MRSA NRS121-ORI^RS; [4]
  zone of inhibition at 360 µg/disc: 13 mm
MSSA T972018; 360 μg in 5% P80, Average of experiments, no prediffusion
  zone of inhibition at 360 µg/disc: 15 ± 0.6 mm
MSSA T972018; 360 μg in 5% P80, Average of experiments, prediffusion
  zone of inhibition at 360 µg/disc: 17.4 ± 0.3 mm
MSSA T972018; 360 μg in 5% P80, Experiment 1, disks stored 14 days, 3 h prediffusion at room temperature
  zone of inhibition at 360 µg/disc: 17.5 mm
MSSA T972018; [3]
  zone of inhibition at 360 µg/disc: 17.3 ± 0.4 mm
MSSA T972018; [4]
  zone of inhibition at 360 µg/disc: 14.5 mm
MSSA T972018; 336 h, 360 μg in 5% P80, Experiment 1, disks stored 14 days, no prediffusion
  zone of inhibition at 360 µg/disc: 15.5 mm
MRSA NRS123; 360 μg in 5% P80, Average of experiments, no prediffusion, read-out: Zone diameter (mm ± SD)
  zone of inhibition at 360 µg/disc: 16 ± 0.4 mm
MRSA NRS123; 360 μg in 5% P80, Average of experiments, prediffusion, read-out: Zone diameter (mm ± SD)
  zone of inhibition at 360 µg/disc: 18.8 ± 0.9 mm
MRSA NRS123; 360 μg in 5% P80, Experiment 1, disks stored 14 days, 3 h prediffusion at room temperature, read-out: Zone diameter (mm ± SD)
  zone of inhibition at 360 µg/disc: 19.5 mm
MRSA NRS123; 360 μg in 5% P80, Experiment 2, disks stored 8 days, 3 h prediffusion at room temperature, read-out: Zone diameter (mm ± SD)
  zone of inhibition at 360 µg/disc: 18 mm
MRSA NRS123; [5]
  zone of inhibition at 90 µg/disc: 15.8 mm
  zone of inhibition at 180 µg/disc: 16.5 mm
MRSA NRS123; 192 h, 360 μg in 5% P80, Experiment 2, disks stored 8 days, no prediffusion, read-out: Zone diameter (mm ± SD)
  zone of inhibition at 360 µg/disc: 15.8 ± 0.4 mm
MRSA NRS123; 192 h, 360 μg oritavancin, 2.5% P80, disks stored 8 days, prediffusion, read-out: Average zone diameter
  zone of inhibition at 360 µg/disc: 16.8 mm
MRSA NRS123; [6]
  zone of inhibition at 90 µg/disc: 16 mm
  zone of inhibition at 180 µg/disc: 17.3 mm
MRSA NRS123; [7]
  zone of inhibition at 90 µg/disc: 15.5 mm
  zone of inhibition at 180 µg/disc: 17.3 mm
MRSA NRS123; 336 h, 360 μg in 5% P80, Experiment 1, disks stored 14 days, no prediffusion, read-out: Zone diameter (mm ± SD)
  zone of inhibition at 360 µg/disc: 16.3 ± 0.4 mm
MRSA NRS123; 336 h, 360 μg oritavancin, 5% P80, disks stored 14 days, prediffusion, read-out: Average zone diameter
  zone of inhibition at 360 µg/disc: 18.5 mm
MRSA NRS123; 336 h, 360 μg oritavancin, 10% P80, disks stored 14 days, prediffusion, read-out: Average zone diameter
  zone of inhibition at 360 µg/disc: 17.5 mm
MRSA NRS123-ORI^RS; [1]
  zone of inhibition at 360 µg/disc: 14 mm
MRSA NRS123-ORI^RS; [2]
  zone of inhibition at 360 µg/disc: 15 mm
MRSA NRS123-ORI^RS; [3]
  zone of inhibition at 360 µg/disc: 15 mm
MRSA NRS123-ORI^RS; [4]
  zone of inhibition at 360 µg/disc: 14 mm
NRS123 and NRS2; 90 μg oritavancin, 2.5% P80
  Difference in diameter (NRS2 subtracted from NRS123): 1.8 mm
NRS123 and NRS2; 90 μg oritavancin, 5% P80
  Difference in diameter (NRS2 subtracted from NRS123): 1 mm
NRS123 and NRS2; 90 μg oritavancin, 10% P80
  Difference in diameter (NRS2 subtracted from NRS123): −0.3 mm
NRS123 and NRS2; 180 μg oritavancin, 2.5% P80
  Difference in diameter (NRS2 subtracted from NRS123): 1.7 mm
NRS123 and NRS2; 180 μg oritavancin, 5% P80
  Difference in diameter (NRS2 subtracted from NRS123): 1.3 mm
NRS123 and NRS2; 180 μg oritavancin, 10% P80
  Difference in diameter (NRS2 subtracted from NRS123): 1.3 mm
NRS123 and NRS2; 360 μg oritavancin, 2.5% P80
  Difference in diameter (NRS2 subtracted from NRS123): 1.8 mm
NRS123 and NRS2; 360 μg oritavancin, 5% P80
  Difference in diameter (NRS2 subtracted from NRS123): 0.5 mm
NRS123 and NRS2; 360 μg oritavancin, 10% P80
  Difference in diameter (NRS2 subtracted from NRS123): 1 mm
